The record followed here is PubChem BioAssay (NCI).

Each structure is given as a SMILES string.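 Step 1: Grow cells in 96-well plates. Step 2: Expose to compound for 48 hours at 5 concentrations. Step 3: Interpolate endpoints linearly; if unreached, use highest concentration. GI50 is the concentration that inhibits growth by half. TGI marks complete inhibition of growth.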

Test in all cases: growth of human tumour cells (NCI), 48 h
Test [1] relates to ACHN renal.
In test [2] the test system is SNB-75 CNS.
The subject of test [3] is SN12C renal.
The test system of test [4] is OVCAR-8 ovarian.
Test [5] deals with NCI-H23 lung.
Test [6] relates to MALME-3M melanoma.
The test system of test [7] is NCI-H226 lung.
Test [8] has as its system LOX IMVI melanoma.
Test [9] concerns IGROV1 ovarian.
Test [10] relates to RPMI-8226 leukemia.

For `COc1ccc(C(=O)Nc2ncc(Cc3ccc(F)cc3)s2)cc1`, the GI50 was 0.0664 µM in test [1]; 0.036 µM in test [2]; 0.0988 µM in test [3]; 0.135 µM in [4]; 0.368 µM in test [5]; 0.0855 µM in test [6]. Also, the GI50 in [7] is 0.0829 µM; in test [8], 0.0673 µM; in test [9] it was 0.0957 µM; in test [10], 0.0373 µM. In addition, the TGI in test [1] is over 95 µM; in [2], over 100 µM; in [3], over 100 µM; in test [4], over 100 µM; in test [5], over 100 µM; in [6], over 62.8 µM. The TGI in test [7] is over 100 µM; in [8], over 100 µM; in test [9], 97.7 µM.

Turning to `CSc1nc(Cl)c(Br)c(Nc2c[nH]c(=O)[nH]c2=O)n1`, the TGI in test [1] was found to be 35.5 µM; in [2], 42.7 µM; in test [3], 35.3 µM; in test [4] it was 30.4 µM; in [5], 35.7 µM; in test [6], 43.9 µM. Besides, the TGI in [7] was 41.7 µM; in test [8], 39.3 µM; in test [9] it was 19.9 µM; in test [10] it was over 100 µM.

For `CC(C)(C)c1ccc(C(=O)N/N=C/c2ccc(O)cc2O)cc1`, the GI50 in [1] is 0.334 µM; in test [2], 0.584 µM; in test [3], 0.801 µM; in test [4], 0.54 µM; in [5] it was 0.839 µM; in [6], 0.478 µM. The GI50 is 0.412 µM in test [7], 0.224 µM in [8], 0.411 µM in test [9] and 0.784 µM in test [10]. In addition, the TGI in test [1] was 7.74 µM; in test [2], 13.6 µM; in test [3], 13 µM; in [4] it was over 100 µM; in test [5], 13.3 µM; in test [6] it was 5.19 µM. The TGI in test [7] turned out to be 5.75 µM; in [8] it was 0.975 µM; in test [9], 12.4 µM; in [10] it was 20.9 µM.

For `CC(=O)Nc1ccc(-c2nnc(SCC(=O)Nc3ccccc3[N+](=O)[O-])o2)cc1`, the TGI in test [1], in test [2], in test [3], in [4], in [5] and in [6] was over 100 µM each time. In addition, the TGI in test [7], in [8], in [9] and in test [10] was over 100 µM in each case.

On to `CN(C)CCCNC(=O)c1cc2c3ccccc3[nH]c2c2ncccc12`, for which the GI50 in test [1] was 5.23 µM; in [2] it was 13 µM; in test [3], 15.6 µM; in [4], 12.6 µM; in test [5], 14.6 µM; in [6], 13 µM. The GI50 in test [7] was 19.9 µM; in [8] it was 8.34 µM; in test [9], 10.9 µM; in test [10] it was 7.42 µM. Further, the TGI was 68.2 µM in test [1]; 33.8 µM in test [2]; over 100 µM in test [3]; over 100 µM in test [4]; 29.2 µM in test [5]; 27 µM in test [6]. The TGI in test [7] was over 100 µM; in test [8], 23.8 µM; in test [9], 70.9 µM; in test [10], 32.8 µM.

`O=C(CCCn1ccnc1[N+](=O)[O-])NCCn1cnc([N+](=O)[O-])c1`: the TGI in [1], in test [2], in test [3], in test [4], in test [5] and in test [6] was over 100 µM throughout. Also, the TGI in [7], in test [8], in test [9] and in test [10] was over 100 µM each time.

With `c1ccc(-c2n(Cc3ccc4ccccc4n3)c3ccccc3[n+]2Cc2ccc3ccccc3n2)cc1`, the GI50 in test [1] is 1.41 µM; in test [2] it was 0.229 µM; in test [3], 0.302 µM; in test [4] it was 0.341 µM; in [5] it was 0.262 µM; in [6] it was 0.336 µM. Also, the GI50 in [7] is 0.424 µM; in test [8], 0.261 µM; in test [9], 0.244 µM; in [10] it was 0.0936 µM. In addition, the TGI was found to be 3.01 µM in test [1]; 0.937 µM in [2]; 1.22 µM in test [3]; 1.46 µM in [4]; 1.14 µM in [5]; 1.65 µM in test [6]. In addition, the TGI worked out at 2.64 µM in test [7], 1.06 µM in test [8], 1.28 µM in test [9] and 0.845 µM in test [10].

Turning to `Clc1ccccc1-c1nc2ccccc2[nH]1`, the GI50 in test [1], in test [2], in test [3], in test [4], in test [5] and in [6] was over 100 µM throughout. The GI50 in test [7] was over 100 µM; in [8], over 100 µM; in test [9], 91.7 µM; in test [10] it was 94 µM. For the same compound, the TGI in [1], in [2], in [3], in test [4], in [5] and in [6] was over 100 µM throughout. Besides, the TGI in test [7], in [8], in test [9] and in test [10] was over 100 µM throughout.

As to `O=C1OCC2=C1C(c1cccc(F)c1)c1cc3c(cc1N2CCO)OCCO3` (centres undefined), the GI50 was 0.386 µM in test [1]; 0.113 µM in test [2]; 0.345 µM in test [3]; 0.244 µM in test [4]; 0.35 µM in [5]; 0.305 µM in [6]. The GI50 in test [7] was 3.18 µM; in test [8], 0.265 µM; in [9] it was 0.333 µM; in [10] it was 0.207 µM. Also, the TGI was over 50 µM in [1]; 0.38 µM in [2]; over 50 µM in test [3]; over 50 µM in test [4]; over 50 µM in test [5]; over 50 µM in test [6]. For the same compound, the TGI in test [7], in [8], in [9] and in [10] was over 50 µM throughout.
